What was measured:
[1] = tested on: A549 lung carcinoma cells; assay: MNA production in A549 cells; format: cell-based, human; conditions: 1 and 10 μM compound, 100 μM nicotinamide, 10 μM SAM, 1 h
[2] = tested on: human aortic endothelial cells (HAEC); assay: MNA production in HAEC cells; format: cell-based; conditions: 1 and 10 μM compound, 100 μM nicotinamide, 10 μM SAM, 3 hours
NNMT = conditions: read-out: reported IC50 value; cited from earlier work

In the case of `CNc1ccc(C(N)=O)cn1` [Peptide 6-MANA, 6-methylamino-nicotinamide], the “effect on concentration of MNA” value [1] is given as “significant reduction of MNA concentration”, the “effect on concentration of MNA” value [2] is given as “significant reduction of MNA concentration” and the IC50 (NNMT) is given as 588 ± 75 nM.
